Source: PubChem BioAssay (NCI)
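Method: 48-hour compound exposure of cells in 96-well plates, five concentrations, linear interpolation of endpoints. TGI: concentration producing complete growth inhibition.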

Assays:
Assay in all cases: inhibition of tumour cell growth, NCI panel, 48 h
[1] = tested on: DLD-1 colon
[2] = tested on: XF 498 CNS
[3] = tested on: DMS 114 small cell lung
[4] = tested on: KM20L2 colon
[5] = tested on: LXFL 529 NSCLC
[6] = tested on: SNB-78 CNS
[7] = tested on: DMS 273 small cell lung
[8] = tested on: RXF-631 renal
[9] = tested on: HOP-18 NSCLC

Measured: TGI

COc1cc(/C=C2/C(=O)N(C(=O)c3ccccc3O)N=C2C)cc(OC)c1OC
> 100 µM: [1] | [2] | [4] | [5] | [6]
21.7 µM: [3]

COC(=O)CC(C(C(=O)OC)C(=O)OC)N1C(=O)OCC1c1ccccc1 (stereo not given)
not listed: [3] | [6] | [9]
> 100 µM: all other assays above

O=c1[nH]n2c(=O)cc[nH]c2c1-c1nnns1
not listed: [8] | [9]
> 100 µM: all other assays above

COc1ccc(C(C#N)NNC(=O)c2ccccc2O)cc1OC (stereo not given)
47.2 µM: [7]
12.7 µM: [3]
> 100 µM: [1] | [9] | [5] | [6]
62.5 µM: [4]

c1ccc(C2C3=C(Nc4ncnn42)c2ccccc2C3)cc1 (stereo not given)
24.1 µM: [3]
24.5 µM: [4]
38 µM: [1]
not listed: [5]
> 100 µM: all other assays above

COC(=O)C(CCC#N)(CCC#N)C(=O)OC
> 100 µM: [2] | [7] | [3] | [4] | [5]

COc1ccc(C2Oc3c(cc(O)c(OC)c3C)[C@@H]2C)cc1OC (stereo not given in full)
> 100 µM: all assays above

CCOC(=O)C1Cc2[nH]c3ccccc3c2C(C)C1C (stereo not given)
34.5 µM: [1]
30.4 µM: [7]
58.5 µM: [3]
37.9 µM: [2]
62.4 µM: [6]
57.1 µM: [5]
31.8 µM: [4]

Cn1cc2ccccc2c1-c1nc(N)nc(F)n1
not listed: [9]
> 100 µM: all other assays above
